# Legend:
# Septoria tritici [1] = test: Example F-C: in vivo 5 days preventive Septoria tritici test (wheat); settings: Zymoseptoria tritici, 504 h, inoculated 5 days after spraying, evaluated 21 days after inoculation, read-out: Efficacy in % Example F-C
# Protocol: Example F: In Vivo Septoria tritici Test (Wheat); Comparison of Pyridinyloxy-Pyridyl Compounds According to the Invention Vs. Compounds Known from WO-A 2010/146116 [table] To produce a suitable preparation of active compound, 1 part by weight of active compound or active compound combination is mixed with the stated amounts of solvent and emulsifier, and the concentrate is diluted with water to the desired concentration. Example F-C: In Vivo 5 Days Preventive Septoria tritici Test (Wheat) To test for preventive and long-lasting activity, young plants are sprayed with a preparation of active compound or active compound combination at the stated rate of application. After the spray coating has been dried, the plants are placed in the greenhouse at a temperature of approximately 15° C. and a relative atmospheric humidity of approximately 80%. 5 days later the plants are sprayed with a spore suspension of Septoria tritici. The plants remain for 48 hours in an incubation cabinet at approximately 20° C. and a relative atmospheric humidity of approximately 100% and afterwards for 60 hours at approximately 15° C. in a translucent incubation cabinet at a relative atmospheric humidity of approximately 100%. Then the plants are placed in the greenhouse at a temperature of approximately 15° C. and a relative atmospheric humidity of approximately 80%. The test is evaluated 21 days after the inoculation. 0% means an efficacy which corresponds to that of the untreated control, while an efficacy of 100% means that no disease is observed.
# Septoria tritici [2] = test: Example F-B: in vivo curative Septoria tritici test (wheat); settings: Zymoseptoria tritici, 504 h, sprayed 48 hours after inoculation, evaluated 21 days after inoculation, read-out: Efficacy in % Example F-B
# Protocol: Example F: In Vivo Septoria tritici Test (Wheat); Comparison of Pyridinyloxy-Pyridyl Compounds According to the Invention Vs. Compounds Known from WO-A 2010/146116 [table] To produce a suitable preparation of active compound, 1 part by weight of active compound or active compound combination is mixed with the stated amounts of solvent and emulsifier, and the concentrate is diluted with water to the desired concentration. Example F-B: In Vivo Curative Septoria tritici Test (Wheat) To test for curative activity, young plants are inoculated with a spore suspension of Septoria tritici and remain for 48 hours in an incubation cabinet at a temperature of approximately 20° C. and a relative atmospheric humidity of approximately 100%. 48 hours after the incubation, the plants are sprayed with the preparation of active compound or active compound combination at the stated rate of application. After application the plants remain for 60 hours at a temperature of approximately 15° C. in a translucent incubation cabinet at a relative atmospheric humidity of approximately 100%. Afterwards, the plants are placed in the greenhouse at a temperature of approximately 15° C. and a relative atmospheric humidity of approximately 80%. The test is evaluated 21 days after the inoculation. 0% means an efficacy which corresponds to that of the untreated control, while an efficacy of 100% means that no disease is observed.
# Septoria tritici [3] = test: Example F-A: in vivo preventive Septoria tritici test (wheat); settings: Zymoseptoria tritici, 504 h, evaluated 21 days after inoculation, read-out: Efficacy in % Example F-A
# Protocol: Example F: In Vivo Septoria tritici Test (Wheat); Comparison of Pyridinyloxy-Pyridyl Compounds According to the Invention Vs. Compounds Known from WO-A 2010/146116 [table] To produce a suitable preparation of active compound, 1 part by weight of active compound or active compound combination is mixed with the stated amounts of solvent and emulsifier, and the concentrate is diluted with water to the desired concentration. Example F-A: In Vivo Preventive Septoria tritici Test (Wheat) To test for preventive activity, young plants are sprayed with the preparation of active compound or active compound combination at the stated rate of application. After the spray coating has been dried, the plants are sprayed with a spore suspension of Septoria tritici. The plants remain for 48 hours in an incubation cabinet at approximately 20° C. and a relative atmospheric humidity of approximately 100% and afterwards for 60 hours at approximately 15° C. in a translucent incubation cabinet at a relative atmospheric humidity of approximately 100%. The plants are placed in the greenhouse at a temperature of approximately 15° C. and a relative atmospheric humidity of approximately 80%. The test is evaluated 21 days after the inoculation. 0% means an efficacy which corresponds to that of the untreated control, while an efficacy of 100% means that no disease is observed.
structure (smiles),measurement,setting,value
Clc1ccc(Oc2cc(Cl)c(C3(Cn4cncn4)OCCO3)cn2)cc1 [reference compound],pest or weed control at 500 ppm,Septoria tritici [1],80%
same,pest or weed control at 500 ppm,Septoria tritici [2],89%
same,pest or weed control at 500 ppm,Septoria tritici [3],89%

# Reference: patent US20200017467A1, “NOVEL TRIAZOLE DERIVATIVES” (BAYER CROPSCIENCE AKTIENGESELLSCHAFT, priority 2017, published 2020)
